From patent US20260263429A1, “INHIBITORS OF CA 2+/CALMODULIN-DEPENDENT PROTEIN KINASE II (CAMKII) THAT DO NOT INHIBIT LONG-TERM POTENTIATION (LTP) INDUCTION AND THERAPEUTIC USES THEREOF” (The Regents of the University of Colorado, A Body Corporate, priority 2023, published 2026)
Where two headings read alike, the source gives them in different places.

Experiments:
[1] = target: AMPKα1(h) (Homo sapiens, UniProt Q13131); test: Kinase panel, residual kinase activity at 1 μM inhibitor; assay type: biochemical
AMPKα1(h), sequence (Q13131 whole entry): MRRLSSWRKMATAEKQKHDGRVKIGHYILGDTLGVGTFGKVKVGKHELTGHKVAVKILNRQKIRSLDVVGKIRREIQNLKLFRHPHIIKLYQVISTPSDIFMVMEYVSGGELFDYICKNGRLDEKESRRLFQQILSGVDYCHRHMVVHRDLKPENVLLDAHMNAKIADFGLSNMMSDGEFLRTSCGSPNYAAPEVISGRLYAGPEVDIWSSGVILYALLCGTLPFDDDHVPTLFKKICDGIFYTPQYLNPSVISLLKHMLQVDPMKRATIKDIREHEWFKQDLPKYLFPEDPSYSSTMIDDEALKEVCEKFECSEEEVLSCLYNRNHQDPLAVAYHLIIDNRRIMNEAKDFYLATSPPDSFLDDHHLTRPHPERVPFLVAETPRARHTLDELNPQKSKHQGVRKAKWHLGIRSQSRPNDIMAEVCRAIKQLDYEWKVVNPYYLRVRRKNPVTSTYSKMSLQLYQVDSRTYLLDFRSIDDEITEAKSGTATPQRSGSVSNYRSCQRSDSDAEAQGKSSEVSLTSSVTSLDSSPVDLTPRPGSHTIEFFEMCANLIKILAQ
AMPKα1(h), sequence (Q9Y478 whole entry partner): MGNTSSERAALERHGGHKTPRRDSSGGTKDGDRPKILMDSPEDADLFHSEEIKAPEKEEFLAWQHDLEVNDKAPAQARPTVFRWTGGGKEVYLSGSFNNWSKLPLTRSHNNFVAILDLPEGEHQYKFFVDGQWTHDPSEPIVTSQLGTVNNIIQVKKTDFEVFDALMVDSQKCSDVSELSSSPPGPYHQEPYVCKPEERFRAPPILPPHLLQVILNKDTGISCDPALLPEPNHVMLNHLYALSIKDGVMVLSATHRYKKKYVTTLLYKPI
AMPKα1(h), sequence (P54619 whole entry partner): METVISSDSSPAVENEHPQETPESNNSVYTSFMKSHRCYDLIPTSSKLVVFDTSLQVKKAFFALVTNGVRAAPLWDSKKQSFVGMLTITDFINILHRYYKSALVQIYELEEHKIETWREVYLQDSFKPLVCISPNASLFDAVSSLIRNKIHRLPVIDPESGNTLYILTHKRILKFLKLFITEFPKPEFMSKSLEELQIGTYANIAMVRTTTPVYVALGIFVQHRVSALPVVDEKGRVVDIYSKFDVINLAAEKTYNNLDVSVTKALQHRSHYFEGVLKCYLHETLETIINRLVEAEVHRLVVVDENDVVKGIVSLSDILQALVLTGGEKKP
Method: (§1) In this table, residual kinase activity in the presence of 1 μM of each inhibitor is illustrated as a percentage of maximal activity.

[2] = target: CDK2/cyclinE(h) (Homo sapiens, UniProt P24941); test: as above; assay type: biochemical
Method: as §1

[3] = target: CaMKIIα(h) (Homo sapiens, UniProt Q9UQM7); test: as above; assay type: biochemical
CaMKIIα(h), sequence (Q9UQM7 whole entry): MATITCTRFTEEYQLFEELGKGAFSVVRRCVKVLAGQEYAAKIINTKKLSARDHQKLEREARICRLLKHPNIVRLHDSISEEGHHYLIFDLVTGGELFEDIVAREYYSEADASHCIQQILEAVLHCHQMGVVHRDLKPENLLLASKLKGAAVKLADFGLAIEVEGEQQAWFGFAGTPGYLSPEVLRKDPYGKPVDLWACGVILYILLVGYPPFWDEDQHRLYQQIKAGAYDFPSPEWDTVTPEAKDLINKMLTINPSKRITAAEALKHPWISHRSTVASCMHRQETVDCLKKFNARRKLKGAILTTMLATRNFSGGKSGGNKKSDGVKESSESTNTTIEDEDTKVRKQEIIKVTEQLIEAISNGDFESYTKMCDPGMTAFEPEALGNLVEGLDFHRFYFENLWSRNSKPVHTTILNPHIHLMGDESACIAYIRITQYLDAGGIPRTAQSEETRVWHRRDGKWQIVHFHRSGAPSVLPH
Method: as §1

[4] = target: CaMKIIγ(h) (Homo sapiens, UniProt Q13555); test: as above; assay type: biochemical
CaMKIIγ(h), sequence (Q13555 whole entry): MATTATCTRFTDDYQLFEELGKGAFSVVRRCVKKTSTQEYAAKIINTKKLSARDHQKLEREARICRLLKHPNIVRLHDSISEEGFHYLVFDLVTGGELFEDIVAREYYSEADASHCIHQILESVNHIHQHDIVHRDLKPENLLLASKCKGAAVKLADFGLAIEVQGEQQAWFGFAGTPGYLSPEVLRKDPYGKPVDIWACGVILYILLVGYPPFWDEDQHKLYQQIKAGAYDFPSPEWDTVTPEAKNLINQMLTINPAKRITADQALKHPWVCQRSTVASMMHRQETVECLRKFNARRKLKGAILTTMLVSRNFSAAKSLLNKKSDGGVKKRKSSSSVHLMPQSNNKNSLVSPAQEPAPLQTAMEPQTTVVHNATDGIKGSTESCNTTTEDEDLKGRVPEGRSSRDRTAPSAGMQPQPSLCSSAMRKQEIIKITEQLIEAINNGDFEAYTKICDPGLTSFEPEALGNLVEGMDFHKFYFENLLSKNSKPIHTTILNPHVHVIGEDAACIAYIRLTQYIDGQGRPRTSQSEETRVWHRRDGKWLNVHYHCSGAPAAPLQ
Method: as §1

[5] = target: CaMKIV(h) (Homo sapiens, UniProt Q16566); test: as above; assay type: biochemical
CaMKIV(h), sequence (Q16566 whole entry): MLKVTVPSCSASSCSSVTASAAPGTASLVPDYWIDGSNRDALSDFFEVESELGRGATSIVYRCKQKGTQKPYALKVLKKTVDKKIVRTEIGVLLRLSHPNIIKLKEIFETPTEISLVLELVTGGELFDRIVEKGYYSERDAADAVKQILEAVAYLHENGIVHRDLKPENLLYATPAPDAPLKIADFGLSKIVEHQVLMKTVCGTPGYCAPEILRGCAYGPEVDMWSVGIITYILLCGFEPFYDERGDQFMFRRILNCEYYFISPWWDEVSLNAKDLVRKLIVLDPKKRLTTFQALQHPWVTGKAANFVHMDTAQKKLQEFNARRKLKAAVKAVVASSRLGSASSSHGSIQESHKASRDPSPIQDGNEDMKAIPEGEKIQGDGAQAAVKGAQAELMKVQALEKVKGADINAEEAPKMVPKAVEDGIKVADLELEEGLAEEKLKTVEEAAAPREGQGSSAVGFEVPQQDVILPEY
Method: as §1

[6] = target: FGFR1(h) (Homo sapiens, UniProt P11362); test: as above; assay type: biochemical
Method: as §1

[7] = target: GSK3α(h) (Homo sapiens, UniProt P49840); test: as above; assay type: biochemical
Method: as §1

[8] = target: GSK3β(h) (Homo sapiens, UniProt P49841); test: as above; assay type: biochemical
GSK3β(h), sequence (P49841 whole entry): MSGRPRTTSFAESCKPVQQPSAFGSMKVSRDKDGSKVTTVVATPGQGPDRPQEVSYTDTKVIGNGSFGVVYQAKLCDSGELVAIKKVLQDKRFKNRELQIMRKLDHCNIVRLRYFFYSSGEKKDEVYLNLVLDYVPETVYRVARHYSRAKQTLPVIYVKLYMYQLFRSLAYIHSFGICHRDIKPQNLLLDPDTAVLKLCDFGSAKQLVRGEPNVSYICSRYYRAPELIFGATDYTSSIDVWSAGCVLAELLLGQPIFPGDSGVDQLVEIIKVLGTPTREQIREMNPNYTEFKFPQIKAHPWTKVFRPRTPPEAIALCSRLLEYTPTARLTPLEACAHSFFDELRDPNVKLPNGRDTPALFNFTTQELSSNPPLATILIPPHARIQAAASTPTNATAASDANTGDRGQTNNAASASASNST
Method: as §1

[9] = target: KDR(h) (Homo sapiens, UniProt P35968); test: as above; assay type: biochemical
Method: as §1

[10] = target: MAPK2(h) (Homo sapiens, UniProt P28482); test: as above; assay type: biochemical
Method: as §1

[11] = target: PDK1(h) (Homo sapiens, UniProt O15530); test: as above; assay type: biochemical
Method: as §1

[12] = target: PKBγ(h) (Homo sapiens, UniProt Q9Y243); test: as above; assay type: biochemical
PKBγ(h), sequence (Q9Y243 whole entry): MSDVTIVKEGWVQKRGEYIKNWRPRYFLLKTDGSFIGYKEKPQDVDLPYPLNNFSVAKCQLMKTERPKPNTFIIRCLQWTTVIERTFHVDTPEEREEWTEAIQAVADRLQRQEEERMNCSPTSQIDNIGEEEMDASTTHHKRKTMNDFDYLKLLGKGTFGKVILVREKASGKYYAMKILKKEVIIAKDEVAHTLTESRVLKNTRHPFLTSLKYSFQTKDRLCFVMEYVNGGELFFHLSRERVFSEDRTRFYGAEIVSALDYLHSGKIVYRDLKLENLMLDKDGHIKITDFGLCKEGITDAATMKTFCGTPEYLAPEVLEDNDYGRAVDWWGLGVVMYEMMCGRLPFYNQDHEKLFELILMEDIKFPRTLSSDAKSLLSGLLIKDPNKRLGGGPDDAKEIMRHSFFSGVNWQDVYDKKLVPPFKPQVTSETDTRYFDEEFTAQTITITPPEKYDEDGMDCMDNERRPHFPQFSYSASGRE
Method: as §1

[13] = target: PKCδ(h) (Homo sapiens, UniProt Q05655); test: as above; assay type: biochemical
PKCδ(h), sequence (Q05655 whole entry): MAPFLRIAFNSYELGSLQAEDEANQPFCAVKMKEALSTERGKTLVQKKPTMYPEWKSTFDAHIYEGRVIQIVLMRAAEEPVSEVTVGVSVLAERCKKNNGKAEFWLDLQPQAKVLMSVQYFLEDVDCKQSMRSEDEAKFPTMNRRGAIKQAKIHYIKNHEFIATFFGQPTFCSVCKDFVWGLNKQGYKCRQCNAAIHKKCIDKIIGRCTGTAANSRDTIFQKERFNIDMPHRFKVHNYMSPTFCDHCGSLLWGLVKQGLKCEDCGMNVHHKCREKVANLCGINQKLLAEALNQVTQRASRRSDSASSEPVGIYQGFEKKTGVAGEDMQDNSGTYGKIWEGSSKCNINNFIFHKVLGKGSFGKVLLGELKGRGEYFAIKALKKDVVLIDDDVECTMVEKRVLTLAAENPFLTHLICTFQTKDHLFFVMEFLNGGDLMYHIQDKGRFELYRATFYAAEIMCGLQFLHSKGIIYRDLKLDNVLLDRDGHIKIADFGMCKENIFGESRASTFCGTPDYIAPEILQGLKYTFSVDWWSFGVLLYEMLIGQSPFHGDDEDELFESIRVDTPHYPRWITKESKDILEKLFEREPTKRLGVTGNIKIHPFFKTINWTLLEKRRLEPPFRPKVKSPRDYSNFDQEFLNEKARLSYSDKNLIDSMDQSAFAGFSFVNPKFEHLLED
Method: as §1

[14] = target: ROCK-II(h) (Homo sapiens, UniProt O75116); test: as above; assay type: biochemical
Method: as §1

[15] = target: SAPK2a(h) (Homo sapiens, UniProt Q16539); test: as above; assay type: biochemical
Method: as §1

[16] = target: SGK(h) (Homo sapiens, UniProt O00141); test: as above; assay type: biochemical
SGK(h), sequence (O00141 whole entry): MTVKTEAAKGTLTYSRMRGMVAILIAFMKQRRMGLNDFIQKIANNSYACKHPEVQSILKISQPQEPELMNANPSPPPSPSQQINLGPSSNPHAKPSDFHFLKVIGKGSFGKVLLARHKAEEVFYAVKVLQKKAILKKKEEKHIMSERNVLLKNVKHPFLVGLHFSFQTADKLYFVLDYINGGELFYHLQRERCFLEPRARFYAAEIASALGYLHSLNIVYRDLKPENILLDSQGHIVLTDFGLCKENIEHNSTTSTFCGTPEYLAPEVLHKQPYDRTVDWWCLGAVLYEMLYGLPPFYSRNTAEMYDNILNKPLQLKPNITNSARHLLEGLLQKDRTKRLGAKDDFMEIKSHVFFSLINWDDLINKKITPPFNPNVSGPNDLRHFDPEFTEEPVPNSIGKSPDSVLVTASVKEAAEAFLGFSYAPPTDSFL
Method: as §1

[17] = target: mTOR(h) (Homo sapiens, UniProt P42345); test: as above; assay type: biochemical
Method: as §1

[18] = system: LTP in CaMKII T286A slices; test: LTP induction in hippocampal slices from CaMKII T286A mutant mice; assay type: cell-based, mouse; conditions: 10 μM inhibitor
[19] = target: purified CaMKIIα (Homo sapiens, UniProt Q9UQM7); test: In vitro kinase reactions with purified CaMKIIα (GluA1 S831, T286, GluN2B S1303 phosphorylation); assay type: biochemical; set-up: made in house; host or cells: baculovirus/Sf9 (CaMKIIα); BL21 bacteria (CaM); conditions: for Ki: 1 mM ATP, 30° C., AS283 0.41-10 μM, Cheng-Prusoff with Km ATP 33.3 μM
Method: In a series of exemplary methods, an in vitro kinase assay was used where purified CaMKIIα is incubated at 30° C. with GST-GluA1 alongside ATP. CaMKIIα normally phosphorylates S831 on the GluA1 subunit and this phosphorylation can be measured as a readout of CaMKIIα enzymatic activity (see e.g., FIG. 8B). […] In another exemplary method, binding of purified CaMKIIα to immobilized GST-GluN2B-c was induced by Ca^2+/CaM in the presence of a vehicle (none), 4 mM ADP or with […] AS105. […] At the same time, two exemplary methods were performed to observe ionomycin or chemical LTP (cLTP) induced co-localization of CaMKII and GluN2B either in HEK293 cells co-expressing GFP-CaMKII and mCherry-2BC or dissociated rat hippocampal cultures expressing GFP-CaMKII and mCh-PSD95 intrabody. HEK293 cells, incubating with vehicle or 10 μM AS105, were subjected to ionomycin. Hippocampal cultures, also incubating with either vehicle or 10 μM AS105, were treated with a chemical LTP (cLTP) stimulus (e.g., 100 μM glutamate, 10 μM glycine for 45 seconds). Confocal microscopy images were taken before and after each stimulus.
Therefore, in another exemplary method, the ability of AS283 to selective inhibit CAMKII enzymatic activity without interfering with its binding to GluN2B was tested. In a first method, in vitro kinase reactions were performed at 30° C. in 1 mM ATP measuring purified CaMKIIα phosphorylation of GST-GluA1 S831 with varying concentrations of AS283 (0.41-10 μM).
One possible mechanism by which AS283 could enhance GluN2B binding more than ATP is by suppressing CaMKII-mediated phosphorylation of GluN2B at S1303, as this phosphorylation within the CaMKII binding site on GluN2B reduces CaMKII binding.
(§2) In vitro phosphorylation assays. CaMKII-mediated phosphorylation of GluA1 S831 was measured by in vitro kinase reaction with purified GST-GluA1 c-terminal tail. Reactions contained 40 nM CaMKII (or water for negative controls), 1 μM GST-GluA1, 50 mM PIPES pH 7.1, 2 mM CaCl2), 10 mM MgCl2, 1 μM calmodulin, 1-4 mM ATP, and 1 PM of okadaic acid. Reactions were done at 30° C. for 20 s; reactions were stopped by adding SDS-loading buffer and incubation in a boiling water bath for 5 min. GST, phospho-S831, CaMKII, phospho-T286, or phospho-S1303 were detected in the samples by immunoblot analysis.
Km and Ki determination. The inhibition constant Ki was calculated using the Cheng-Prusoff equation for competitive inhibition: Ki=IC50/(1+[ATP]/Km).

[20] = target: CaMKII F89G (Homo sapiens, UniProt Q9UQM7, F89G); test: In vitro kinase assay with CaMKII F89G mutant; assay type: biochemical; conditions: 10 μM NM-PP1
Method: This conclusion also predicts that the LTP stimulus-induced movement of CaMKII to excitatory synapses should be (i) impaired in the CaMKII F89G mutant; but (ii) normalized by pharmacogenetic rescue with NM-PP1. Indeed, both predictions were observed experimentally (FIGS. 4D-4E).
as §2

NCCNc1cccc(-c2ccnc3[nH]c4ccccc4c23)c1 [AS283]
residual kinase activity, AMPKα1(h) [1]: 70 percentage of maximal activity | residual kinase activity, CDK2/cyclinE(h) [2]: 41 percentage of maximal activity | residual kinase activity, CaMKIIα(h) [3]: 3 percentage of maximal activity | residual kinase activity, CaMKIIγ(h) [4]: 2 percentage of maximal activity | residual kinase activity, CaMKIV(h) [5]: 90 percentage of maximal activity | residual kinase activity, FGFR1(h) [6]: 58 percentage of maximal activity | residual kinase activity, GSK3α(h) [7]: 82 percentage of maximal activity | residual kinase activity, GSK3β(h) [8]: 87 percentage of maximal activity | residual kinase activity, KDR(h) [9]: 15 percentage of maximal activity | residual kinase activity, MAPK2(h) [10]: 97 percentage of maximal activity | residual kinase activity, PDK1(h) [11]: 78 percentage of maximal activity | residual kinase activity, PKBγ(h) [12]: 42 percentage of maximal activity | residual kinase activity, PKCδ(h) [13]: 39 percentage of maximal activity | residual kinase activity, ROCK-II(h) [14]: 77 percentage of maximal activity | residual kinase activity, SAPK2a(h) [15]: 95 percentage of maximal activity | residual kinase activity, SGK(h) [16]: 86 percentage of maximal activity | residual kinase activity, mTOR(h) [17]: 115 percentage of maximal activity | LTP induction in slices from T286A mutant mice [18]: enabled LTP | Ki ([19]; read-out: apparent Ki, autophosphorylation of T286 (pT286)): 71 nM | Ki ([19]; read-out: apparent Ki, phosphorylation of GluA1 S831 (pS831)): 17 nM | CaMKII-mediated S1303 phosphorylation of wild type GluN2B C-terminus ([19]; purified CaMKII and GST-2BC): inhibited the CaMKII-mediated S1303 phosphorylation

CC(C)(C)n1nc(Cc2cccc3ccccc23)c2c(N)ncnc21 [NM-PP1]
residual enzymatic activity of CaMKII F89G [20]: still further reduced | effect on pT286 of CaMKII wildtype ([19]; in vitro kinase reaction in ATP): did not affect pT286
